Data reported in patent US9597407B2, “Targeted antimicrobial moieties” (C3 Jian, Inc., priority 2009, dated 2017).
Entries after “also recorded” stand apart in the source; their conditions may differ.

Legend:
bacteria = assay: Binding of targeting peptides to microorganisms (Table 3); conditions: peptide binding in aqueous buffers that varied depending on peptide solubility; preferably 1x PBS
microorganisms = assay: Morphology, biofilm and growth disruption by peptides (Table 5); assay type: cell-based; set-up: key: A: Peptide aggregates; B: Less hyphal formation; Clumps; Diffuse clumps and small polyps; F: Diffuse growth; H: Thin; I: Growth inhibition; Microcolony formation; Rippled; Small polyps; Thick; W: Halo formation on top, microlonies on bottom
Description: In certain embodiments peptides that induce alterations in phenotype or other biological activities can also be used as antimicrobial effector moieties.

Substance	Target(s) (microorganism bound by the targeting peptide) (bacteria)	Organism, effect (morphology, biofilm and growth disruption) (microorganisms; S. pneumoniae)	Organism, effect (morphology, biofilm and growth disruption) (microorganisms; S. mutans)	Organism, effect (morphology, biofilm and growth disruption) (microorganisms; F. nucleatum)	also measured
PF-693 (chain 1 PDPAR; chain 2 PDPAR; Peptide with targeting and/or antimicrobial activity)	Mycobacteria spp	S. pneumoniae (A)			
PF-694 (chain 1 DLIRPLYSMSAPSVA; chain 2 DLIRPLYSMSAPSVA; Peptide with targeting and/or antimicrobial activity)	Mycobacteria spp	S. pneumoniae (A)			Organism, effect (morphology, biofilm and growth disruption) (microorganisms; MRSA): MRSA (R)
PF-695 (chain 1 ALSVMLGNIPLVVPNANQL; chain 2 ALSVMLGNIPLVVPNANQL; Peptide with targeting and/or antimicrobial activity)	Mycobacteria spp	S. pneumoniae (C)			Organism, effect (morphology, biofilm and growth disruption) (microorganisms; E. faecalis): E. faecalis (R); Organism, effect (morphology, biofilm and growth disruption) (microorganisms; MRSA): MRSA (R)
PF-696 (chain 1 IRSGISAAYARPLR; chain 2 IRSGISAAYARPLR; Peptide with targeting and/or antimicrobial activity)	Mycobacteria spp	S. pneumoniae (H)			
PF-697 (chain 1 RADARAK; chain 2 RADARAK; Peptide with targeting and/or antimicrobial activity)	Mycobacteria spp	S. pneumoniae (H)			Organism, effect (morphology, biofilm and growth disruption) (microorganisms; C. albicans): C. albicans (H)
PF-698 (chain 1 SSGRAGVKCRRPTGR; chain 2 SSGRAGVKCRRPTGR; Peptide with targeting and/or antimicrobial activity)	Mycobacteria spp	S. pneumoniae (A)			Organism, effect (morphology, biofilm and growth disruption) (microorganisms; C. albicans): C. albicans (H); Organism, effect (morphology, biofilm and growth disruption) (microorganisms; E. faecalis): E. faecalis (A)
PF-699 (chain 1 GRAGVKCRRPTGR; chain 2 GRAGVKCRRPTGR; Peptide with targeting and/or antimicrobial activity)	Mycobacteria spp	S. pneumoniae (A)			
PF-700 (chain 1 LNWPFTGR; chain 2 LNWPFTGR; Peptide with targeting and/or antimicrobial activity)	Mycobacteria spp	S. pneumoniae (C)			
PF-702 (chain 1 LSGRLAGRR; chain 2 LSGRLAGRR; Peptide with targeting and/or antimicrobial activity)	Mycobacteria spp	S. pneumoniae (H)			
PF-704 (chain 1 APAARAAL; chain 2 APAARAAL; Peptide with targeting and/or antimicrobial activity)	Mycobacteria spp	S. pneumoniae (C)			
PF-776 (VSILLYLSATIILPNVLRLLVARAIIVRV; Peptide with targeting and/or antimicrobial activity)	S. epidermidis and M. luteus and P. mirabilis and C. albicans and MRSA and S. pneumoniae and E. faecalis	S. pneumoniae (C)	S. mutans (D)		Organism, effect (morphology, biofilm and growth disruption) (microorganisms; E. coli): E. coli (C); Organism, effect (morphology, biofilm and growth disruption) (microorganisms; M. luteus): M. luteus (C); Organism, effect (morphology, biofilm and growth disruption) (microorganisms; MRSA): MRSA (D); Organism, effect (morphology, biofilm and growth disruption) (microorganisms; S. epidermidis): S. epidermidis (D)
PF-C052 (SRFRNGV; Peptide with targeting and/or antimicrobial activity)	A. naeslundii; also recorded: F. nucleatum; also recorded: S. mutans				Organism, effect (morphology, biofilm and growth disruption) (microorganisms; P. gingivalis): P. gingivalis (H)
PF-C055 (YNLSIYIYFLHTITIAGLITLPFII; Peptide with targeting and/or antimicrobial activity)	A. naeslundii; also recorded: F. nucleatum; also recorded: P. gingivalis; also recorded: S. mutans		S. mutans (I)	F. nucleatum (T)	
PF-C057 (YFWWYWVQDCIPYKNNEVWLELSNNMK; Peptide with targeting and/or antimicrobial activity)	A. naeslundii; also recorded: F. nucleatum; also recorded: P. gingivalis; also recorded: S. mutans		S. mutans (I)		
PF-C062 (PLARATEVVATLFIICSLLLYLTR; Peptide with targeting and/or antimicrobial activity)	A. naeslundii; also recorded: F. nucleatum; also recorded: P. gingivalis; also recorded: S. mutans; also recorded: T. denticola		S. mutans (I)	F. nucleatum (T)	
PF-C064 (DEEALEMGANLYAQFAIDFLNSKK; Peptide with targeting and/or antimicrobial activity)	A. naeslundii; also recorded: F. nucleatum; also recorded: P. gingivalis; also recorded: S. mutans; also recorded: T. denticola			F. nucleatum (T)	
PF-C069 (NALMLREMQLAKNIKVEVTDVLSNKKYC; Peptide with targeting and/or antimicrobial activity)	A. naeslundii; also recorded: F. nucleatum; also recorded: P. gingivalis; also recorded: S. mutans; also recorded: T. denticola			F. nucleatum (T)	
PF-C071 (QVIVKIL; Peptide with targeting and/or antimicrobial activity)	A. naeslundii; also recorded: F. nucleatum; also recorded: S. mutans			F. nucleatum (T)	
PF-C075 (KALVISVFAIVFSIIFVKFFYWRDKK; Peptide with targeting and/or antimicrobial activity)	A. naeslundii; also recorded: F. nucleatum; also recorded: P. gingivalis; also recorded: S. mutans; also recorded: T. denticola		S. mutans (F)	F. nucleatum (T)	Organism, effect (morphology, biofilm and growth disruption) (microorganisms; P. gingivalis): P. gingivalis (R)
PF-C084 (FFSVIFLFGLNYLICNSPLFNILR; Peptide with targeting and/or antimicrobial activity)	A. naeslundii; also recorded: F. nucleatum; also recorded: P. gingivalis; also recorded: S. mutans		S. mutans (F)	F. nucleatum (T)	Organism, effect (morphology, biofilm and growth disruption) (microorganisms; P. gingivalis): P. gingivalis (R)
PF-C088 (DIANNILNSVSERLIIA; Peptide with targeting and/or antimicrobial activity)	A. naeslundii; also recorded: F. nucleatum; also recorded: P. gingivalis; also recorded: S. mutans; also recorded: T. denticola		S. mutans (I)	F. nucleatum (H)	Organism, effect (morphology, biofilm and growth disruption) (microorganisms; P. gingivalis): P. gingivalis (R)
PF-C091 (ASNTPRFVRLTLFNFYSKIWNVTHLFLFNNL; Peptide with targeting and/or antimicrobial activity)	A. naeslundii; also recorded: F. nucleatum; also recorded: P. gingivalis; also recorded: S. mutans; also recorded: T. denticola			F. nucleatum (T)	
PF-C120 (ASLSTMTFKVMELKELIILLCGLTMLMIQTEFV; Peptide with targeting and/or antimicrobial activity)	A. naeslundii; also recorded: F. nucleatum; also recorded: P. gingivalis; also recorded: S. mutans; also recorded: T. denticola			F. nucleatum (T)	
PF-C131 (QWIVAKREIRMHIYCHISVIHVIIFFG; Peptide with targeting and/or antimicrobial activity)	A. naeslundii; also recorded: F. nucleatum; also recorded: P. gingivalis; also recorded: S. mutans		S. mutans (F)	F. nucleatum (T)	
PF-C136 (LILSYQASVYPLFAYLCQQKDY; Peptide with targeting and/or antimicrobial activity)	A. naeslundii; also recorded: F. nucleatum; also recorded: P. gingivalis; also recorded: S. mutans; also recorded: T. denticola			F. nucleatum (C)	Organism, effect (morphology, biofilm and growth disruption) (microorganisms; P. gingivalis): P. gingivalis (R)
